Experimental data from ChEMBL document CHEMBL1201862, “PubChem BioAssay data set” (2004).
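In this assay, cells in 96-well plates receive the compound at five concentrations for 48 hours. Endpoints are linearly interpolated between the surrounding concentrations. Here, GI50 denotes the concentration required for 50% inhibition of growth.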 Activity calls are given as the source filed them. Rule as the data show it: active = GI50 up to about 1.1 µM and inactive = higher.

Key:
Experiment in all cases: NCI-60 cell line screen, 48 h
TK-10 = tested on: TK-10
XF498 = tested on: XF498
NCI-H522 = tested on: NCI-H522
CAKI-1 = tested on: CAKI-1
A549 = tested on: A549
DLD-1 = tested on: DLD-1
M19-MEL = tested on: M19-MEL
HOP-92 = tested on: HOP-92
HCC 2998 = tested on: HCC 2998
786-0 = tested on: 786-0
EKVX = tested on: EKVX
HT-29 = tested on: HT-29
HCT-116 = tested on: HCT-116
Malme-3M = tested on: Malme-3M
RXF 631 = tested on: RXF 631
SNB-19 = tested on: SNB-19
LOX IMVI = tested on: LOX IMVI
SF-268 = tested on: SF-268
ACHN = tested on: ACHN
SNB-75 = tested on: SNB-75
HOP-18 = tested on: HOP-18
HCT-15 = tested on: HCT-15
OVCAR-3 = tested on: OVCAR-3
SF-295 = tested on: SF-295
SF-539 = tested on: SF-539
OVCAR-8 = tested on: OVCAR-8
COLO 205 = tested on: COLO 205
RPMI-8226 = tested on: RPMI-8226
SK-MEL-2 = tested on: SK-MEL-2
UACC-62 = tested on: UACC-62
NCI-H23 = tested on: NCI-H23
M14 = tested on: M14
DMS-273 = tested on: DMS-273
SK-OV-3 = tested on: SK-OV-3
OVCAR-4 = tested on: OVCAR-4
SK-MEL-28 = tested on: SK-MEL-28
SK-MEL-5 = tested on: SK-MEL-5
SW-620 = tested on: SW-620
HOP-62 = tested on: HOP-62
KM-20L2 = tested on: KM-20L2
SNB-78 = tested on: SNB-78
LXFL 529 = tested on: LXFL 529
K562 = tested on: K562
NCI-H226 = tested on: NCI-H226
MOLT-4 = tested on: MOLT-4
SN12C = tested on: SN12C
OVCAR-5 = tested on: OVCAR-5
U-251 = tested on: U-251
NCI-H460 = tested on: NCI-H460
KM12 = tested on: KM12
UACC-257 = tested on: UACC-257
RXF 393 = tested on: RXF 393
CCRF-CEM = tested on: CCRF-CEM
IGROV-1 = tested on: IGROV-1
UO-31 = tested on: UO-31
A498 = tested on: A498
HL-60 = tested on: HL-60
DMS-114 = tested on: DMS-114

With `Cn1cc(NC(=O)c2cc(NC(=O)CCCCCCCCC(=O)Nc3cc(C(=O)Nc4cc(C(=O)NCCC(N)N)n(C)c4)n(C)c3)cn2C)cc1C(=O)NCCC(=N)N` the GI50 (TK-10) was 18.2 µM (inactive), the GI50 (XF498) was 28.6 µM (inactive) and the GI50 (NCI-H522) was 8.99 µM (inactive). The GI50 (CAKI-1) was 22.5 µM (inactive), the GI50 (A549) was 16.9 µM (inactive) and the GI50 (DLD-1) was 25.5 µM (inactive). For the same compound, the GI50 (M19-MEL) was 16.6 µM (inactive), the GI50 (HOP-92) was 36.6 µM (inactive) and the GI50 (HCC 2998) was 24.7 µM (inactive). For the same compound, the GI50 (786-0) was 21.9 µM (inactive), the GI50 (EKVX) was 20.3 µM (inactive) and the GI50 (HT-29) was 18.8 µM (inactive). The GI50 (HCT-116) was 20 µM (inactive), the GI50 (Malme-3M) was 0.935 µM (active) and the GI50 (RXF 631) was 26.9 µM (inactive). The GI50 (SNB-19) was 21.4 µM (inactive), the GI50 (LOX IMVI) was 36.9 µM (inactive) and the GI50 (SF-268) was 20.5 µM (inactive). For the same compound, the GI50 (ACHN) was 17.9 µM (inactive), the GI50 (SNB-75) was 18.1 µM (inactive) and the GI50 (HOP-18) was 25.9 µM (inactive). For the same compound, the GI50 (HCT-15) was 35.4 µM, the GI50 (OVCAR-3) was 31 µM (inactive) and the GI50 (SF-295) was 23.3 µM (inactive). For the same compound, the GI50 (SF-539) was 22.6 µM (inactive), the GI50 (OVCAR-8) was 21.4 µM (inactive) and the GI50 (COLO 205) was 20 µM (inactive). The GI50 (RPMI-8226) was 5.35 µM (inactive), the GI50 (SK-MEL-2) was 19.2 µM (inactive) and the GI50 (UACC-62) was 20.7 µM (inactive). The GI50 (NCI-H23) was 33.9 µM (inactive), the GI50 (M14) was 22.3 µM (inactive) and the GI50 (DMS-273) was 17.1 µM (inactive). For the same compound, the GI50 (SK-OV-3) was 27.9 µM (inactive), the GI50 (OVCAR-4) was 34.7 µM (inactive) and the GI50 (SK-MEL-28) was 12.1 µM (inactive). For the same compound, the GI50 (SK-MEL-5) was 4.74 µM (inactive), the GI50 (SW-620) was 19.6 µM (inactive) and the GI50 (HOP-62) was 33 µM (inactive). The GI50 (KM-20L2) was 19.7 µM (inactive), the GI50 (SNB-78) was 34.6 µM (inactive) and the GI50 (LXFL 529) was 27.2 µM (inactive). For the same compound, the GI50 (K562) was 13.4 µM (inactive), the GI50 (NCI-H226) was 25.8 µM (inactive) and the GI50 (MOLT-4) was 19.9 µM (inactive). The GI50 (SN12C) was 23.8 µM (inactive), the GI50 (OVCAR-5) was 21.4 µM (inactive) and the GI50 (U-251) was 17 µM (inactive). The GI50 (NCI-H460) was 20.1 µM (inactive), the GI50 (KM12) was 18.5 µM (inactive) and the GI50 (UACC-257) was 13.7 µM (inactive). The GI50 (RXF 393) was 21.2 µM (inactive), the GI50 (CCRF-CEM) was 20.7 µM (inactive) and the GI50 (IGROV-1) was 24.5 µM (inactive). The GI50 (UO-31) was 28.2 µM (inactive).
For `COc1cc(/C=C\c2ccccn2)cc(OC)c1OC`, the GI50 (TK-10) was > 100 µM (inactive), the GI50 (XF498) was 16.2 µM (inactive) and the GI50 (NCI-H522) was 70 µM (inactive). For the same compound, the GI50 (CAKI-1) was > 100 µM (inactive), the GI50 (A549) was 85.7 µM (inactive) and the GI50 (DLD-1) was > 100 µM (inactive). The GI50 (M19-MEL) was 67.3 µM (inactive), the GI50 (A498) was 78.5 µM (inactive) and the GI50 (HOP-92) was 16.4 µM (inactive). The GI50 (786-0) was > 100 µM (inactive), the GI50 (EKVX) was 48.5 µM (inactive) and the GI50 (HL-60) was 31 µM (inactive). For the same compound, the GI50 (HT-29) was 46.3 µM (inactive), the GI50 (HCT-116) was > 100 µM (inactive) and the GI50 (Malme-3M) was > 100 µM (inactive). The GI50 (RXF 631) was > 100 µM (inactive), the GI50 (SNB-19) was > 100 µM (inactive) and the GI50 (LOX IMVI) was 64 µM (inactive). For the same compound, the GI50 (SF-268) was > 100 µM (inactive), the GI50 (DMS-114) was 45.6 µM (inactive) and the GI50 (ACHN) was > 100 µM (inactive). For the same compound, the GI50 (SNB-75) was 47.3 µM (inactive), the GI50 (HOP-18) was > 100 µM (inactive) and the GI50 (HCT-15) was 78.3 µM. The GI50 (OVCAR-3) was > 100 µM (inactive), the GI50 (SF-295) was > 100 µM (inactive) and the GI50 (SF-539) was > 100 µM (inactive). For the same compound, the GI50 (OVCAR-8) was > 100 µM (inactive), the GI50 (COLO 205) was 66.1 µM (inactive) and the GI50 (RPMI-8226) was 30.6 µM (inactive). For the same compound, the GI50 (UACC-62) was 60 µM (inactive), the GI50 (NCI-H23) was > 100 µM (inactive) and the GI50 (M14) was 55.6 µM (inactive). The GI50 (DMS-273) was 75 µM (inactive), the GI50 (OVCAR-4) was > 100 µM (inactive) and the GI50 (SK-MEL-28) was > 100 µM (inactive). The GI50 (SK-MEL-5) was 57.5 µM (inactive), the GI50 (SW-620) was 41.8 µM (inactive) and the GI50 (HOP-62) was 79.4 µM (inactive). The GI50 (KM-20L2) was 71.4 µM (inactive), the GI50 (SNB-78) was > 100 µM (inactive) and the GI50 (LXFL 529) was 70.5 µM (inactive). For the same compound, the GI50 (K562) was 32.1 µM (inactive), the GI50 (NCI-H226) was > 100 µM (inactive) and the GI50 (MOLT-4) was 61.9 µM (inactive). The GI50 (SN12C) was > 100 µM (inactive), the GI50 (OVCAR-5) was > 100 µM (inactive) and the GI50 (U-251) was > 100 µM (inactive). The GI50 (NCI-H460) was > 100 µM (inactive), the GI50 (KM12) was 63.8 µM (inactive) and the GI50 (UACC-257) was > 100 µM (inactive). The GI50 (RXF 393) was > 100 µM (inactive), the GI50 (CCRF-CEM) was > 100 µM (inactive) and the GI50 (IGROV-1) was > 100 µM (inactive). For the same compound, the GI50 (UO-31) was 56.9 µM (inactive).
